These results are taken from patent US20170369892A1, “HORMONE DEGRADABLE CRISPR-BASED TRANSCRIPTION FACTORS” (University of Washington, priority 2016, published 2017).

Entries after “also recorded” stand apart in the source; their conditions may differ.

Assay [1] concerns receiver cells (ADCTF, gRNA targeting minimal CYC1 promoter driving EGFP). In words: Coculture of sender and receiver strains treated with IAM. The conditions noted are these: saturating IAM. The format is cell-based, Saccharomyces cerevisiae. The source says:
FIG. 5A illustrates coculture of sender and receiver strains. Sender cells convert IAM into auxin that then diffuses out of sender cells and into receiver cells where it causes the degradation of ADCTFs, producing a drop in fluorescence.
Sender cells can produce a tunable auxin response in receiver cells. Sender and receiver cells were cocultured in different ratios to measure the effect of sender cell concentration on auxin signal production. Senders constitutively express iaaH and the receivers expressed an activating ADCTF and a gRNA targeting a minimal CYC1 promoter driving EGFP (see FIG. 5A). […] Three different receiver strains with a range of responses to auxin were tested with the sender strain. […] In addition, a 10% fraction of sender cells is sufficient for a significant change in fluorescence in receiver cells at steady state and a 50% fraction produces a nearly saturating signal (see FIGS. 5C and 5D).

The test system of assay [2] is EYFP-IAA17|AFB2 auxin reporting strain expressing iaaH. In words: Time-lapse cytometry of iaaH sender strain with EYFP-IAA17|AFB2 auxin reporter after IAM or auxin. It is filed as cell-based, Saccharomyces cerevisiae. The source says: FIG. 3A illustrates an auxin sender strain design. The iaaH enzyme of Agrobacterium tumefaciens catalyzes the conversion of indole-3-acetamide (IAM) into auxin, inducing the degradation of proteins fused to an auxin degron. The iaaH enzyme (sender cells) was integrated into an auxin reporting strain (the EYFP-IAA17|AFB2 strain from Havens, et al. (2012) Plant Physiol. 160, 135-42) to test for internal auxin production.
Yeast can produce tunable levels of auxin via expression of Iaah from Agrobacterium tumefaciens. To generate an auxin producing strain, half of the IAM pathway from Agrobacterium tumefaciens was integrated into yeast (see Zhao, Y. (2010) Annu. Rev. Plant Biol. 61, 49-64). The IAM pathway is a two-step enzymatic process that converts tryptophan to IAM and then into auxin. The first step is via tryptophan-2-monooxygenase (iaaM, not examined here). The second step is catalyzed by indole-3-acetamide hydrolase (iaaH). To test whether yeast could produce auxin from IAM using only the second enzyme, the iaaH gene from the Agrobacterium tumefaciens Ti plasmid (see Pacurar, D. I., et al. (2011) Physiol. Mol. Plant Pathol. 76, 76-81) was integrated into an auxin reporting yeast strain (see FIG. 3A) containing a IAA-YFP fusion protein. After adding IAM, reporter degradation rates were measured via time-lapse cytometry (see FIG. 3B).
(§1) All cytometry measurements were acquired with an ACCURI™ C6 cytometer with attached CSAMPLER™ apparatus using 488 nm and 640 nm excitation lasers and a 533 nm (FL-1: YFP/GFP) emission filter. For experiments involving steady-state ADC behavior (see FIGS. 6A-7B) cultures were grown overnight in SC media with 1 nM beta-estradiol for ADC expression induction. The next morning they were diluted down 1:100 and then grown up for 5 hours and then induced with varying auxin concentrations from stock solutions. These cultures were then grown overnight and fluorescence was measured the next day. For the replicates, untreated cultures from the previous day's experiments were used as overnights to begin the next day's cultures.

Assay [3] has as its system laboratory strains of yeast. As to conditions: grown in standard conditions; cited from earlier work.
The subject of assay [4] is UBQ1 promoter driving venus-luciferase reporter repressed by ADCTF. In words: ADCTF-regulated venus-luciferase reporter in plants after auxin treatment. It is filed as in vivo, Arabidopsis thaliana. The text has this: FIG. 12A is a schematic of the genetic circuit that was transformed into Arabidopsis thaliana to test the function of the hormone degradable CRISPR based transcription factor (HDCTF). […] These complex together and cause repression of the UBQ1 promoter, which is driving the expression of a venus-luciferase fusion reporter with a nuclear localization tag fused to it. Auxin can interact with the degron domain of the ADCTF (a version of the HDCTF) to degrade the transcription factor and relieve repression.
FIG. 12B is graph showing the normalized luciferase reporter activity over time for two plants, one of which has an ADCTF with a functional degron and the other which has a ADCTF with a stabilized degron. The orange bar indicates when the plants were exposed to either an auxin (solid line) or control (dashed line) treatment. The box plot summarizes the behavior of several plant lines with the functional or stabilized degron ADCTFs eighty minutes after treatment.
(In a reporter assay the amount or activity of a reporter protein is the signal.)

The subject of assay [5] is ADCTF (auxin receiver) strain, minimal CYC1 promoter driving EGFP. In words: Cytometry of ADCTF receiver yeast strains (GFP reporter) after auxin induction. The format is cell-based, Saccharomyces cerevisiae.
Source text: Synthetic, scalable, auxin-modulated transcription factors are provided. To link an auxin sensor to diverse transcriptional responses and targets, auxin degradable CRISPR transcription factors (ADCTFs) with three modular domains were designed (see FIG. 1A). In some embodiments, a core component of the ADCTFs can be the CRISPR-based transcription factor described by Farzadfard, et al. (“Tunable and multifunctional eukaryotic transcription factors based on CRISPR/Cas,” ACS synthetic biology 2.10 (2013): 604-613), wherein a dCas9 protein functions as a programmable DNA binding module. The dCas9 was fused to a transcriptional effector domain, in this case the transcriptional activator VP64, and to an IAA degron. In the presence of an AFB, ADCTFs should generally be ubiquitinated and degraded when exposed to auxin. The ADCTFs were tested by targeting them to activate the expression of EGFP from a minimal CYC1 promoter and observing deactivation of fluorescence upon the addition of auxin. […] Auxin dependent regulation was independent of the promoter being regulated by the ADCTF (see FIG. 6B). The observed effect was also reversible.
as §1
For time course experiments, cultures were grown overnight in SC media with 1 nM beta-estradiol for ADC expression induction. The next morning two sets of parallel cultures were set up by diluting down the overnights 1:100. These were then grown up for 5 hours and then induced with 30 μM auxin and reads were taken every 30 minutes for approximately seven hours. A final steady state reading was taken the next day.
Cytometry data were analyzed using custom R scripts and the FLOWCORE™ package by first gating for the yeast diploid population and then generating mean fluorescence values for every point. These datasets were then collectively fit using the LOESS fitting function in R and metrics and error were derived from these fits. For the recovery experiments, the same protocol was used except the overnight cultures were grown up in SC with 1 nM beta-estradiol and 30 μM auxin.

For `NC(=O)Cc1c[nH]c2ccccc12` [IAM, indole-3-acetamide], in assay [1], the “fluorescence / gene activation in receiver strain” value was “dropped in fluorescence over time; also recorded: comparable to direct addition of auxin”. Further, the “delay between addition of IAM and production of auxin” value in assay [2] was “no significant delay”. In addition, the “auxin-induced degradation rate (t1/2) of reporter” value in assay [2] (for a given molarity, compared with auxin) was “comparable to that of native auxin”. For the same molecule, the “fluorescence of sender cells following addition of IAM” value in assay [2] (time-lapse cytometry) is “decreased to basal levels”. In assay [2] (varying doses of IAM), the “steady state fluorescence of sender cells” value was “lower steady state fluorescence; also recorded: converge to those of auxin”.
As for auxin, the “effects on laboratory strains of yeast” value in assay [3] is on record as “does not have measurable effects”. Further, the “normalized luciferase reporter activity” value in assay [4] (ADCTF with functional degron, eighty minutes after treatment) was “significant increase in reporter expression”. For the same molecule, in assay [4] (root tip), the “reporter expression in root tip (confocal microscopy)” value is listed as “significant increase in reporter expression”. In addition, the “release of regulation with minimal pGAL promoter driving GFP” value in assay [5] (30 μM auxin, degron 17 with AFB2 or TIR1-DM, compared with pCYC1 target) was “comparable release of regulation”. Besides, the “GFP fluorescence level following addition of auxin” value in assay [5] (time-lapse cytometry, ADCTF strain expressing gRNA) is “dropped to basal levels; also recorded: dropped to levels at or below the control (no gRNA) levels”. Besides, in assay [5] (wash-out after steady state), the “reporter expression after auxin was removed” value is “returned to its activated state”.

B1: tir1-D/M: mutant of TIR1 F-box protein (protein, UniProt Q570C0 1-594, looked up, variant D170E M473L)
Protein TRANSPORT INHIBITOR …: MQKRIALSFPEEVLEHVFSFIQLDKDRNSVSLVCKSWYEIERWCRRKVFIGNCYAVSPATVIRRFPKVRSVELKGKPHFADFNLVPDGWGGYVYPWIEAMSSSYTWLEEIRLKRMVVTDDCLELIAKSFKNFKVLVLSSCEGFSTDGLAAIAATCRNLKELDLRESDVDEVSGHWLSHFPDTYTSLVSLNISCLASEVSFSALERLVTRCPNLKSLKLNRAVPLEKLATLLQRAPQLEELGTGGYTAEVRPDVYSGLSVALSGCKELRCLSGFWDAVPAYLPAVYSVCSRLTTLNLSYATVQSYDLVKLLCQCPKLQRLWVLDYIEDAGLEVLASTCKDLRELRVFPSEPFVMEPNVALTEQGLVSVSMGCPKLESVLYFCRQMTNAALITIARNRPNMTRFRLCIIEPKAPDYLTLEPLDIGFGAIVEHCKDLRRLSLSGLLTDKVFEYIGTYAKKMEMLSVAFAGDSDLGLHHVLSGCDSLRKLEIRDCPFGDKALLANASKLETMRSLWMSSCSVSFGACKLLGQKMPKLNVEVIDERGAPDSRPESCPVERVFIYRTVAGPRFDMPGFVWNMDQDSTMRFSRQIITTNGL
Turning to B1, in assay [5] (30 μM auxin induction, ranking across library), the “degradation kinetics (time to 50% degradation)” value is recorded as “fastest overall”. In addition, in assay [5] (steady state, dose response twenty-four hours after induction), the “auxin sensitivity range conferred by F-box protein” value is given as “narrowest”.
